Source: US20090305993A1, “METHODS AND COMPOSITION FOR THE TREATMENT OF GASTROINTESTINAL DISORDERS” (IRONWOOD PHARMACEUTICALS, INC., priority 2006, published 2009)
Where a SMILES comes first, the peptide text is derived from it. Bridges are numbered along the chain shown (N, C = ends). Where no end group is shown, it is not given here.

Experiments:
[1] = oral bioavailability in rats, LCMS; assay type: in vivo, rat; conditions: plasma
Method: Similarly, oral bioavailability was determined in rats using LCMS methodology. Rat plasma samples containing SEQ ID NO:3 and/or SEQ ID NO:6 were extracted using a Waters Oasis MAX 96 well solid phase extraction (SPE) plate. A 200 μL volume of rat plasma was mixed with 200 μL of ^13C9, ^15N—SEQ ID NO:3 in the well of a prepared SPE plate. The samples were drawn through the stationary phase with 15 mm Hg vacuum. All samples were rinsed with 200 μL of 2% ammonium hydroxide in water followed by 200 μL of 20% methanol in water. The samples were eluted with consecutive 100 μL volumes of […] formic acid/water/methanol and 100 μL 5/15/80 formic acid/water/methanol. The samples were dried under nitrogen and resuspended in 100 μL of 20% methanol in water. Samples were analyzed by a Waters Quattro Micro mass spectrometer coupled to a Waters 1525 binary pump with a Waters 2777 autosampler. A 40 μL volume of each sample was injected onto a Thermo Hypersil GOLD C18 column (2.1×50 mm, 5 um). SEQ ID NO:3 and SEQ ID NO:6 were eluted by a gradient over 3 minutes with acetonitrile and water containing 0.05% trifluoroacetic acid. The Quattro Micro mass spectrometer was run in multiple reaction monitoring (MRM) mode using the mass transitions of 764>182 and 682>136 for SEQ ID NO:3 and SEQ ID NO:6 respectively. Using this methodology, SEQ ID NO:3 was dosed orally and by IV to rats at 10 mg/kg. […] In this experiment, the limit of detection (LOD) for SEQ ID NO:6 was 0.78 nM. SEQ ID NO:6 was detected at all time points for the intravenous dose and was not detected beyond 240 min for the oral dose. For non-detected values, the LOD was used as an upper estimate of the concentration of SEQ ID NO:6. The calculated value for AUCp.o., (0-6h) was <1308 nM-min and AUCi.v.,(0-6h) was 1,590,000 nM-min. The 6 h bioavailability of SEQ ID NO:6 determined by circulating plasma levels was 0.08%

carboxypeptidase A = target: T1, carboxypeptidase A (Homo sapiens, UniProt P15085); assay: in vitro proteolytic stability, carboxypeptidase A
T1 sequence (P15085 111-419): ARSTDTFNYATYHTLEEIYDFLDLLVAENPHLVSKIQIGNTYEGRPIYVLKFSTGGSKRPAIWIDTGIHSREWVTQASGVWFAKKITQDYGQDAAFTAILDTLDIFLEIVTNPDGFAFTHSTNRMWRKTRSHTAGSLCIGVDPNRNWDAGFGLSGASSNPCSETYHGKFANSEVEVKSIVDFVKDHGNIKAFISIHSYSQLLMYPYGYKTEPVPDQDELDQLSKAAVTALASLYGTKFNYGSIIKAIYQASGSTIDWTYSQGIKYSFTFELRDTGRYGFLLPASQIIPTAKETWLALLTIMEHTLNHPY
Method: The stability of SEQ ID NO:3 in the presence of several mammalian digestive enzymes was determined. SEQ ID NO:3 was exposed to a variety of in vitro conditions including digestive enzymes and low ph environments designed to simulate gastric fluid. SEQ ID NO:3 was incubated with chymotrypsin, trypsin, pepsin, aminopeptidase, carboxypeptidase A, and simulated gastric fluid (sgf) at ph 1.0. Samples were collected at 0, 3, and 24 h for all conditions except pepsin digestion and the SGF. For the latter two conditions, samples were obtained at 0, 1, and 3 h. Negative control samples were prepared for initial and final time points. A separate, positive activity control was run in parallel to SEQ ID NO:3. All samples were analyzed by LC/MS
Five (5) μL of a 40 μg/mL carboxypeptidase inhibitor (carboxypeptidase inhibitor from potato tuber (Sigma-Aldrich, C0279) stock was added to each control sample (0 and 24 h), for a final concentration of 0.4 μg/mL. All control and test (0, 3 and 24 h) samples were incubated at 37° C. for 5 min. Twenty (20) μL of a 0.01 mg/mL carboxypeptidase A (Carboxypeptidase A from human pancreas; Sigma-Aldrich, C5358) stock was added to each sample. The samples were returned to the 37° C. water bath. The reaction was quenched with 5 μL of a 40 μg/mL carboxypeptidase inhibitor at the proper time point. No extra carboxypeptidase inhibitor was added to the control samples since there was already inhibitor present. Samples were subsequently flash frozen in liquid nitrogen, and stored at −80° C. until analysis. Upon analysis, samples were thawed and transferred to a 1 mL 96-well deep microtiter plate. […] These standards were used to generate a standard curve for quantification of samples. When necessary, the standard curves were also used to calculate the concentration of the corresponding digestion product. Ten (10) μL injections were made of each sample and standard.
To further study the SEQ ID NO:3 carboxypeptidase A digestion product, samples of 0.01 mg/mL SEQ ID NO:3 were prepared in the carboxypeptidase A reaction buffer at a total volume of 500 μL in 2 mL eppendorf tubes. Triplicate samples were prepared for the following time points: 0, 15, 30, 60, 120, 180 and 240 min. The samples were incubated at 37° C. for 5 min. Twenty (20) μL of a 0.01 mg/mL carboxypeptidase A stock were added to each sample and returned to the 37° C. water bath. The reactions were quenched with 5 μL of a 40 μg/mL carboxypeptidase inhibitor at the proper time points. Samples were subsequently flash frozen in liquid nitrogen, and stored at −80° C. until analysis. Upon analysis, samples were thawed and transferred to a 1 mL 96-well plate. Standards of SEQ ID NO:3 were prepared in carboxypeptidase A reaction buffer at 0.625, 1.25, 2.50, 5.00, and 10.00 μg/mL concentrations. These standards were used to generate a standard curve for quantification of samples. When necessary, the standard curves were also used to calculate the concentration of the corresponding digestion product. Ten (10) μL injections were made of each sample and standard. If the formation of a digestion product was evident, then a spectral analysis was used to determine the mass of the digestion product, and predict its possible identity.

mice = assay: murine gastrointestinal transit (GIT) assay, acute dosing; assay type: in vivo, mouse; conditions: for gastrointestinal transit rate: oral, SEQ ID NO:4 0.1 mg/kg, Zelnorm 0.1 mg/kg, FIG. 3a, 3b; for intestinal transit rate versus dosage: recombinantly synthesized peptides, FIG. 4a
Method: In order to determine whether the peptides increase the rate of gastrointestinal transit, the peptides and controls were tested using a murine gastrointestinal transit (GIT) assay (Moon et al. Infection and Immunity 25:127, 1979). In this assay, charcoal, which can be readily visualized in the gastrointestinal tract is administered to mice after the administration of a test compound. The distance traveled by the charcoal is measured and expressed as a percentage of the total length of the […].
Mice were fasted with free access to water for 12 to 16 hours before the treatment with peptide or control buffer. The peptides were orally administered at 1 μg/kg-1 mg/kg of peptide in buffer (20 mM Tris pH 7.5) 7 minutes before being given an oral dose of 5% Activated Carbon (Aldrich 242276-250G). Control mice were administered buffer only before being given a dose of Activated Carbon. After 15 minutes, the mice were sacrificed and their intestines from the stomach to the cecum were dissected. The total length of the intestine as well as the distance traveled from the stomach to the charcoal front was measured for each animal and the results are expressed as the percent of the total length of the intestine traveled by the charcoal front. All results are reported as the average of 10 mice±standard deviation. A comparison of the distance traveled by the charcoal between the mice treated with peptide versus the mice treated with vehicle alone was performed using a Student's t test and a statistically significant difference was considered for P<0.05. P-values are calculated using a two-sided T-Test assuming unequal variances.

suckling mice = assay: suckling mouse model of intestinal secretion (SuMi assay); assay type: in vivo
Method: In this model a test compound is administered to suckling mice that are between 7 and 9 days old. After the mice are sacrificed, the gastrointestinal tract from the stomach to the cecum is dissected (“guts”). The remains (“carcass”) as well as the guts are weighed and the ratio of guts to carcass weight is calculated. If the ratio is above 0.09, one can conclude that the test compound increases intestinal secretion. […] The effect of Zelnorm® was also studied.

CD1 female mice = assay: murine gastrointestinal transit assay, chronic dosing; assay type: in vivo, mouse; conditions: oral, daily for 5 days; SEQ ID NO:3 0.06 or 0.25 mg/kg; FIG. 4c
Method: The identical experiment was performed to determine if SEQ ID NO:3 is effective in a chronic dosing treatment regimen. Briefly, 8 week old CD1 female mice are dosed orally once a day for 5 days with either SEQ ID NO:3 (0.06 mg/kg or 0.25 mg/kg in 20 mM Tris pH 7.5) or vehicle alone (20 mM Tris pH 7.5). On the 5th day, a GIT assay is performed identical to that above except 200 μl of a 10% charcoal solution is administered. […] The results are shown side by side with acute dosing (1 day).

intestinal GC-C receptor = target: T2, intestinal GC-C receptor (Homo sapiens, UniProt P25092); assay: intestinal GC-C receptor activity assay (cyclic GMP EIA) in T84 cells; assay type: cell-based; conditions: chemically synthesized peptides, FIGS. 2a and 2b
T2 construct: monolayers of T84 cells in 24-well plates; host or cells: T84 human colon carcinoma cells
T2 sequence (P25092 24-1073): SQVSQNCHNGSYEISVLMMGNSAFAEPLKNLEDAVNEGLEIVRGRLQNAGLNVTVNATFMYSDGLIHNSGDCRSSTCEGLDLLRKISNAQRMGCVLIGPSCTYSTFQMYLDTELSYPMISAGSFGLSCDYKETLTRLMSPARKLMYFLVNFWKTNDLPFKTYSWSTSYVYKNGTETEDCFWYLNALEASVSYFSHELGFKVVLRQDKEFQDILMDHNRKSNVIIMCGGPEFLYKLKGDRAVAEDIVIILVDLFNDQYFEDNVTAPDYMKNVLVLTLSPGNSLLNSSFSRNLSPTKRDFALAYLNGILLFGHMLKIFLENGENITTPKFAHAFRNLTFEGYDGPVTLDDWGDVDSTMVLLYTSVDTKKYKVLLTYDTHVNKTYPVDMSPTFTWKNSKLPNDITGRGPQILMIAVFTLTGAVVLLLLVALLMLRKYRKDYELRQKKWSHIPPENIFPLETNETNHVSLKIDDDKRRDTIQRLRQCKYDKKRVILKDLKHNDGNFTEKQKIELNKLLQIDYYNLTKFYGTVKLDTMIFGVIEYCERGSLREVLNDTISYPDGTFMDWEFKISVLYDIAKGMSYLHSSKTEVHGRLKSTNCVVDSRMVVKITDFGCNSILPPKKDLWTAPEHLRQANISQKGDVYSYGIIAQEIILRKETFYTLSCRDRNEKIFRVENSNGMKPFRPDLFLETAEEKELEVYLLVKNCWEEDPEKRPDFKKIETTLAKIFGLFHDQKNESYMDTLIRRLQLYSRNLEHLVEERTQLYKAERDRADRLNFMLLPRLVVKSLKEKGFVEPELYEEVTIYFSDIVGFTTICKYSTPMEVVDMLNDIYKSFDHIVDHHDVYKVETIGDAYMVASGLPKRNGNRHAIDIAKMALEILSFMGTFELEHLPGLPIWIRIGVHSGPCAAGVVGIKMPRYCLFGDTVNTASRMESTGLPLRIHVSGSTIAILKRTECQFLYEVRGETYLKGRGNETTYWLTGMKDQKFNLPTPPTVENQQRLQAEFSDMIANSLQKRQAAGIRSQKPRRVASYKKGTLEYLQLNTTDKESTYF
Method: The ability of SEQ ID NO:5, SEQ ID NO:4, SEQ ID NO:3, and SEQ ID NO:6 to activate the intestinal GC-C receptor was assessed in an assay employing the T84 human colon carcinoma cell line (American Type Culture Collection (Bethesda, Md.)). For the assays cells were grown to confluency in 24-well culture plates with a 1:1 mixture of Ham's F12 medium and Dulbecco's modified Eagle's medium (DMEM), supplemented with 5% fetal calf serum and were used at between passages 54 and 60.
Briefly, monolayers of T84 cells in 24-well plates were washed twice with 1 ml/well DMEM, then incubated at 37° C. for 10 min with 0.45 ml DMEM containing 1 mM isobutylmethylxanthine (IBMX), a cyclic nucleotide phosphodiesterase inhibitor. Test peptides (50 μl) were then added and incubated for 30 minutes at 37° C. The media was aspirated and the reaction was then terminated by the addition of ice cold 0.5 ml of 0.1N HCl. The samples were held on ice for 20 minutes and then evaporated to dryness using a heat gun or vacuum centrifugation.

[2] = target: T3, GC-C receptors found in rat intestinal mucosa (Rattus norvegicus, UniProt P23897); conditions: same assay, observed by Giannella et al.; cited from earlier work
T3 construct: Epithelial cells from the small intestine of rats were obtained; from tissue; host or cells: rat small intestine mucosa / epithelial cell suspension
T3 sequence (P23897 23-1072): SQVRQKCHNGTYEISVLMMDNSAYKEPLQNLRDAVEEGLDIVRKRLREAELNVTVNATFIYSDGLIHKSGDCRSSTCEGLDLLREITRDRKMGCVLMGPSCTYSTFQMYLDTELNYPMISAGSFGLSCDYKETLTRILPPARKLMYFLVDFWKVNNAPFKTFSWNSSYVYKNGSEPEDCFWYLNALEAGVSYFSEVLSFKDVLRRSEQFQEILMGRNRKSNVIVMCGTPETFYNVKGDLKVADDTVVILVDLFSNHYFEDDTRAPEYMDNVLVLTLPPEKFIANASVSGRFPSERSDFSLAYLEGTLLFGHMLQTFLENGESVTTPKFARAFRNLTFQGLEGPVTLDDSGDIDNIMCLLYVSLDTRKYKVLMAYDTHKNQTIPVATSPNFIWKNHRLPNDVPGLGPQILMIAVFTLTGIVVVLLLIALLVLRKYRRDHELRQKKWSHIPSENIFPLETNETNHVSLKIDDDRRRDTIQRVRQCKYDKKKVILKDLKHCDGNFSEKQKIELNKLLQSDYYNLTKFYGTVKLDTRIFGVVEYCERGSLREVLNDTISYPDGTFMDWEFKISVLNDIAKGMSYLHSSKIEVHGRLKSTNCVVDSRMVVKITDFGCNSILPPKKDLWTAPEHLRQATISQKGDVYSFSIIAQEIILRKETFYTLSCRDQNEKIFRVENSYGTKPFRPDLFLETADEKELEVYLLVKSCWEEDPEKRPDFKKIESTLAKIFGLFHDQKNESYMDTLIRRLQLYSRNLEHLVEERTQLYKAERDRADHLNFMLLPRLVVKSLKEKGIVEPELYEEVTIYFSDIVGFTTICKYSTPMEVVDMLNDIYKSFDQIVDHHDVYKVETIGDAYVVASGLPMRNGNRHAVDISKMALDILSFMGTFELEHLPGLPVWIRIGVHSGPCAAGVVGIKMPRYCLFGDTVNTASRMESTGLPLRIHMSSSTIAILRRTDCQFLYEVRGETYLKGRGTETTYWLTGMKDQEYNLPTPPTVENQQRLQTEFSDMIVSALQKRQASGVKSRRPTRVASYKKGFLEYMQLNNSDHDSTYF

mouse = assay: phenylbenzoquinone (PBQ)-induced writhing model; conditions: oral; SEQ ID NO:5 1 mg/kg, SEQ ID NO:3 2.5 mg/kg; versus vehicle control, FIGS. 8a, 8b
[3] = recombinant peptides, dose response, FIG. 6a

C[C@@H]1NC(=O)[C@@H]2CCCN2C(=O)[C@H](CC(N)=O)NC(=O)[C@@H]2CSSC[C@H](N)C(=O)N[C@H]3CSSC[C@H](NC1=O)C(=O)N[C@@H]([C@@H](C)O)C(=O)NCC(=O)N[C@H](C(=O)O)CSSC[C@H](NC(=O)[C@H](Cc1ccc(O)cc1)NC(=O)[C@H](CCC(=O)O)NC3=O)C(=O)N2 [SEQ ID NO:6] (H-CCEYCCNPACTGC-OH; disulfide 1-6, 2-10, 5-13)
AUC, intravenous dose (AUCi.v.,(0-6h)) ([1]; 10 mg/kg IV): 1,590,000 nM-min
AUC, oral dose (AUCp.o.,(0-6h)) ([1]; 10 mg/kg oral): < 1308 nM-min
average concentration (carboxypeptidase A; carboxypeptidase A digestion of SEQ ID NO:3, T0): 108 (+/−2) nM
average concentration (carboxypeptidase A; carboxypeptidase A digestion of SEQ ID NO:3, T240 (240 min)): 726 (+/−138) nM

[H]/N=C(/NCCCCC)N/N=C/c1c[nH]c2ccc(OC)cc12 [Zelnorm®, tegaserod, reference compound]
gastrointestinal transit rate (mice): increase gastrointestinal transit rate
intestinal secretion (ratio of guts to carcass weight) (suckling mice; 0.2 mg/kg): does not increase intestinal secretion
gastrointestinal motility upon chronic dosing (CD1 female mice): effective

NSSNYCCELCCNPACTGCY [SEQ ID NO:4]
activity in GC-C receptor activity assay (intestinal GC-C receptor): activity comparable to SEQ ID NO:4
intestinal transit rates versus Tris buffer and Zelnorm (mice; chemically synthesized peptides, FIG. 4b): increase intestinal transit rates more than either Tris buffer alone or an equivalent dose of Zelnorm®
gastrointestinal transit rate (mice): increase gastrointestinal transit rate
intestinal transit rate versus dosage (mice): increases with an increasing dosage
intestinal secretion (ratio of guts to carcass weight) (suckling mice; dose response, FIG. 5a, 5b): increase intestinal secretion
intestinal secretion (ratio of guts to carcass weight) (suckling mice; [3]): increase intestinal secretion
Kd [2]: ~13 nM

NSSNYCCEYCCNPACTGCY (cysteine pairing not given here) [SEQ ID NO:5]
writhings (mouse): Significant reductions in writhings
intestinal transit rate versus dosage (mice): increases with an increasing dosage
intestinal secretion (ratio of guts to carcass weight) (suckling mice; [3]): increase intestinal secretion
